Legend:
[1] = system: ENR+CD organoids (ISC to Paneth cell differentiation); experiment: Primary screen: CCh-stimulated lysozyme secretion LYZ.S, 2.5-D 384-well ENR+CD organoid differentiation; assay type: cell-based, mouse; conditions: primary screen
Source text: (§1) High-throughput screening.

[2] = system: ENR+CD organoids (ISC to Paneth cell differentiation); experiment: Primary screen: basal (non-stimulated) lysozyme secretion LYZ.NS, 2.5-D 384-well ENR+CD organoid differentiation; assay type: cell-based, mouse
Source text: as §1

ENR+CD organoids = experiment: Primary screen: ATP (CellTiter-Glo 3D, CTG) cell number/viability, 2.5-D 384-well ENR+CD organoids;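 also: compounds given at plating and again on day 3 over a 6-day differentiation from ENR+CV stem-cell-enriched precursors, ATP measured on day 6, plate median as control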
[3] = primary screen, standard z score, dose 0.08 uM
[4] = primary screen, standard z score, dose 0.40 uM
[5] = primary screen, standard z score, dose 2.00 uM
[6] = primary screen, standard z score, dose 10.00 uM
[7] = primary screen, dose 0.08 uM, FC relative to plate median
[8] = primary screen, dose 0.08 uM, standard z score
[9] = primary screen, dose 0.40 uM, FC relative to plate median
[10] = primary screen, dose 0.40 uM, standard z score
[11] = primary screen, dose 2.00 uM, FC relative to plate median
[12] = primary screen, dose 2.00 uM, standard z score
[13] = primary screen, dose 10.00 uM, FC relative to plate median
[14] = primary screen, dose 10.00 uM, standard z score

Structure (SMILES) | Dose.FC.LYZ.S ([1]; dose 0.08 uM) | Dose.FC.LYZ.S ([1]; dose 0.40 uM) | Dose.FC.LYZ.S ([1]; dose 2.00 uM) | Dose.FC.LYZ.S ([1]; dose 10.00 uM) | Dose.FC.LYZ.NS ([2]; primary screen, dose 0.08 uM) | Dose.FC.LYZ.NS ([2]; primary screen, dose 0.40 uM) | Dose.FC.LYZ.NS ([2]; primary screen, dose 2.00 uM) | Dose.FC.LYZ.NS ([2]; primary screen, dose 10.00 uM) | Dose.FC.CTG (ENR+CD organoids; primary screen, dose 0.08 uM) | Dose.FC.CTG (ENR+CD organoids; primary screen, dose 0.40 uM) | Dose.FC.CTG (ENR+CD organoids; primary screen, dose 2.00 uM) | Dose.FC.CTG (ENR+CD organoids; primary screen, dose 10.00 uM) | Z.LYZ.NS (standard z score) ([2]; primary screen, dose 0.08 uM) | Z.LYZ.NS (standard z score) ([2]; primary screen, dose 0.40 uM) | Z.LYZ.NS (standard z score) ([2]; primary screen, dose 2.00 uM) | Z.LYZ.NS (standard z score) ([2]; primary screen, dose 10.00 uM) | Z.CTG (standard z score) (ENR+CD organoids; primary screen, dose 0.08 uM) | Z.CTG (standard z score) (ENR+CD organoids; primary screen, dose 0.40 uM) | Z.CTG (standard z score) (ENR+CD organoids; primary screen, dose 2.00 uM) | Z.CTG (standard z score) (ENR+CD organoids; primary screen, dose 10.00 uM) | other results
CC(C)C[C@H](NC(=O)[C@@H](NC(=O)c1cccc(-c2ccccc2)n1)[C@@H](C)O)B(O)O [CEP-18770 (Delanzomib)] | −0.179 log2 fold change | −0.159 log2 fold change | −0.180 log2 fold change | −0.149 log2 fold change | −0.108 log2 fold change | −0.076 log2 fold change | −0.063 log2 fold change | −0.035 log2 fold change | −0.953 log2 fold change | −1.642 log2 fold change | −0.990 log2 fold change | −1.148 log2 fold change |  |  |  |  |  |  |  |  | Z.LYZ.NS [2, 3]: −0.937; Z.LYZ.NS [2, 4]: −0.664; Z.LYZ.NS [2, 5]: −0.546; Z.LYZ.NS [2, 6]: −0.308; Z.CTG (ENR+CD organoids; [3]): −2.276; Z.CTG (ENR+CD organoids; [4]): −3.923; Z.CTG (ENR+CD organoids; [5]): −2.364; Z.CTG (ENR+CD organoids; [6]): −2.742
COc1ccc2c(c1)c(C1=C(c3c[nH]c4ccccc34)C(=O)NC1=O)cn2CCCN(C)C [Go 6983] |  |  |  |  |  |  |  |  |  |  |  |  | −0.046 | 0.114 | 0.791 | −0.798 | 0.050 | −0.085 | 0.138 | −0.433 | Dose.FC.LYZ.S (log2 fold change) ([1]; dose 0.08 uM): 0.021; Dose.FC.LYZ.S (log2 fold change) ([1]; dose 0.40 uM): 0.007; Dose.FC.LYZ.S (log2 fold change) ([1]; dose 2.00 uM): −0.010; Dose.FC.LYZ.S (log2 fold change) ([1]; dose 10.00 uM): −0.073; Dose.FC.LYZ.NS (log2 fold change) ([2]; primary screen, dose 0.08 uM): −0.005; Dose.FC.LYZ.NS (log2 fold change) ([2]; primary screen, dose 0.40 uM): 0.013; Dose.FC.LYZ.NS (log2 fold change) ([2]; primary screen, dose 2.00 uM): 0.091; Dose.FC.LYZ.NS (log2 fold change) ([2]; primary screen, dose 10.00 uM): −0.092; Dose.FC.CTG (log2 fold change) (ENR+CD organoids; primary screen, dose 0.08 uM): 0.021; Dose.FC.CTG (log2 fold change) (ENR+CD organoids; primary screen, dose 0.40 uM): −0.036; Dose.FC.CTG (log2 fold change) (ENR+CD organoids; primary screen, dose 2.00 uM): 0.058; Dose.FC.CTG (log2 fold change) (ENR+CD organoids; primary screen, dose 10.00 uM): −0.181
Cn1cnc2c(F)c(Nc3ccc(Br)cc3Cl)c(C(=O)NOCCO)cc21 [Selumetinib (AZD6244)] |  |  |  |  |  |  |  |  |  |  |  |  |  |  |  |  |  |  |  |  | Dose.FC.LYZ.S ([1]; dose 0.08 uM, FC relative to plate median): 0.004 log2 fold change; Dose.FC.LYZ.S ([1]; dose 0.40 uM, FC relative to plate median): −0.047 log2 fold change; Dose.FC.LYZ.S ([1]; dose 2.00 uM, FC relative to plate median): −0.175 log2 fold change; Dose.FC.LYZ.S ([1]; dose 10.00 uM, FC relative to plate median): −0.211 log2 fold change; Dose.FC.LYZ.NS [2, 7]: 0.021 log2 fold change; Z.LYZ.NS [2, 8]: 0.181; Dose.FC.LYZ.NS [2, 9]: −0.022 log2 fold change; Z.LYZ.NS [2, 10]: −0.188; Dose.FC.LYZ.NS [2, 11]: −0.097 log2 fold change; Z.LYZ.NS [2, 12]: −0.847; Dose.FC.LYZ.NS [2, 13]: −0.140 log2 fold change; Z.LYZ.NS [2, 14]: −1.220; Dose.FC.CTG (ENR+CD organoids; [7]): 0.164 log2 fold change; Z.CTG (ENR+CD organoids; [8]): 0.393; Dose.FC.CTG (ENR+CD organoids; [9]): −0.165 log2 fold change; Z.CTG (ENR+CD organoids; [10]): −0.395; Dose.FC.CTG (ENR+CD organoids; [11]): −0.257 log2 fold change; Z.CTG (ENR+CD organoids; [12]): −0.613; Dose.FC.CTG (ENR+CD organoids; [13]): −0.852 log2 fold change; Z.CTG (ENR+CD organoids; [14]): −2.035
COc1cc2c(Nc3ccc(NC(=O)c4ccccc4)cc3)ncnc2cc1OCCCN1CCOCC1 [ZM 447439] | 0.171 log2 fold change | 0.108 log2 fold change | 0.074 log2 fold change | −0.132 log2 fold change | 0.103 log2 fold change | 0.107 log2 fold change | 0.052 log2 fold change | −0.080 log2 fold change | 0.512 log2 fold change | 0.304 log2 fold change | 0.231 log2 fold change | −0.240 log2 fold change | 0.896 | 0.932 | 0.456 | −0.695 | 1.222 | 0.725 | 0.552 | −0.574 | 

— US20220323406A1, “METHODS AND COMPOSITIONS FOR DIFFERENTIATING STEM CELLS” (Massachusetts Institute of Technology, priority 2019, published 2022)
